Experimental data taken from paper PMC9648375, “Identification of the first-in-class dual inhibitors of human DNA topoisomerase IIα and indoleamine-2,3-dioxygenase 1 (IDO 1) with strong anticancer properties” (Journal of Enzyme Inhibition and Medicinal Chemistry, 2022).
Values after ≈ are worked out from the molar mass of the structure shown. Like-named read-outs stand apart in the source and are kept apart here.

Experiments:
[1] = target: T1, human DNA topoisomerase IIα (Homo sapiens, UniProt P11388); test: Human topoisomerase IIα relaxation assay; type: biochemical; conditions: agarose gel, densitometry; read-out: IC50 ± SD, relaxation activity of human DNA topoisomerase IIα
T1 construct: purchased Inspiralis Ltd, Norwich, UK
T1 sequence (P11388 whole entry): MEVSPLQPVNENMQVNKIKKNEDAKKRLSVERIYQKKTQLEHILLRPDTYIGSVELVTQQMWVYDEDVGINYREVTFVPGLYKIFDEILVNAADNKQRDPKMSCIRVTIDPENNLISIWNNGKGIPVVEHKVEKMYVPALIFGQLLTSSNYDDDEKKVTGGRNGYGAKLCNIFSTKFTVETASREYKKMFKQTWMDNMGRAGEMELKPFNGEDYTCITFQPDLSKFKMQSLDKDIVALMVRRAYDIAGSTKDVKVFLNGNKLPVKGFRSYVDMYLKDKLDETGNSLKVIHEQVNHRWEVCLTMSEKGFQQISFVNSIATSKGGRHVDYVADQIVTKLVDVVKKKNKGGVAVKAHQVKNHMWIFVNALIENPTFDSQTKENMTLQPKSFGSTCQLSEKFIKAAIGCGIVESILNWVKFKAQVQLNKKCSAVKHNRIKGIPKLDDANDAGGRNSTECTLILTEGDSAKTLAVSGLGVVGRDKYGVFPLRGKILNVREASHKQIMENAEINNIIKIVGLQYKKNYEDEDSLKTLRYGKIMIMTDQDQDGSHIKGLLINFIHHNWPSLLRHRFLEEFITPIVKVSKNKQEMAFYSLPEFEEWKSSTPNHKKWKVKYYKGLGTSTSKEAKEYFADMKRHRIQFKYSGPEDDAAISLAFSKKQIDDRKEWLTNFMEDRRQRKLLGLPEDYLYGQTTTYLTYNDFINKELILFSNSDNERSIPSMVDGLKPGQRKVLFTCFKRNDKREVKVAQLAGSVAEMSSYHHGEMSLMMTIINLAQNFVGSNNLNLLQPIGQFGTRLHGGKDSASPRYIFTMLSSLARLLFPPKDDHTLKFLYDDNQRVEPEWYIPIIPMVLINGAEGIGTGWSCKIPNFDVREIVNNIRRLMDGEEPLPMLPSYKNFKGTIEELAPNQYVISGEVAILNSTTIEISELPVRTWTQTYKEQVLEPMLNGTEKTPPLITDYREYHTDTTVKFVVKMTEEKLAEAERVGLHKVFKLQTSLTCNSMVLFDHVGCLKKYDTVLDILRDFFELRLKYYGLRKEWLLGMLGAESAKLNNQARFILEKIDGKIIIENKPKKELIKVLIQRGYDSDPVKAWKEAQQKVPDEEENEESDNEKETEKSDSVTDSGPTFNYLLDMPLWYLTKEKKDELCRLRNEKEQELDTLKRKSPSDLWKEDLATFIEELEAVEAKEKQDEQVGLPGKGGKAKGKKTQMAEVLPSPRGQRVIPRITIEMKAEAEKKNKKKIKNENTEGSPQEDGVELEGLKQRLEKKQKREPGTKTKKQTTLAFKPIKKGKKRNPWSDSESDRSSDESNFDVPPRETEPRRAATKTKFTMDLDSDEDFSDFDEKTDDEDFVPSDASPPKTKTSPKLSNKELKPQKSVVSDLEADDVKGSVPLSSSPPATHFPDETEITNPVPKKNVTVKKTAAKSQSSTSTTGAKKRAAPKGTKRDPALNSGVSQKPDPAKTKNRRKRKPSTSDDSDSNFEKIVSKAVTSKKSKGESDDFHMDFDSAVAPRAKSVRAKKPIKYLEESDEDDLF
Experimental: As relaxation of supercoiled DNA (scDNA) is one of numerous functions of topoisomerase IIα, so the appearance/disappearance of relaxed DNA bands during agarose gel electrophoresis can be used to identify compounds that inhibit the enzyme.
Briefly, the increased concentrations of the compounds were mixed with the reaction mixture, incubated according to the protocol and, after reaction termination, the samples were analysed by electrophoresis using 1% agarose gel containing 0.5 mg/mL of ethidium bromide in Tris-Acetate-EDTA (TAE) buffer. Visualisation of the bands was performed using an enhanced chemiluminescence system (Syngene G:BOX Chemi XT4, Cambridge, UK). For the quantitative determination of topoisomerase II inhibition, images were densitometrically scanned.
The inhibition of topoisomerase II was calculate from the equation: % Inhibition=Intensity of compound−treated DNA/Intensity of vehicle−treated control DNA×100

[2] = MTT assay; type: cell-based; conditions: human, HEK-293 cells (normal reference cell line), HEK-293 (normal cells), read-out: IC50, cytotoxicity
Experimental: (§1) Therefore, the whole set of compounds were tested by using MTT assay in order to check their overall cytotoxic effect. The growth of cells was monitored after 24 and 48 h of incubation with the increased concentrations (1–100 µg/ml) of the thiosemicarbazide derivatives. […] This confirms that the compounds tested combine different mechanisms of anticancer activity, and DNA topoisomerase II inhibition is only one of them.
(§2) Cytotoxicity of the synthesised compounds were examined against a panel of the cancer cell lines, MCF-7 (estrogen-dependent human breast cancer cells), MDA-MB-231 (oestrogen-independent human breast cancer cells), SCC- 25 (squamous cell carcinoma of the tongue), FaDu (squamous cell carcinoma of the pharynx), A- 549 (human lung carcinoma), AGS (human gastric adenocarcinoma), LS-180, HT-29 (colon cancer cell lines), T98G (glioblastoma cells), A375 (melanoma cells). Human embryonic kidney (HEK-293) cells and human normal skin fibroblasts (CRL-2072) were used as reference cell lines. The investigated cell lines were obtained from American Type Culture Collection (ATCC; Manassas, VA, USA). A375, MCF-7, MDA-MB-231, T98G cells were cultured in Dulbecco’s Modified Eagle’s Medium (DMEM) (Sigma Aldrich, St. Louis, MO, USA) supplemented with 10% heat inactivated foetal bovine serum (FBS), penicillin (100 U/mL), and streptomycin (100 μg/mL). SCC-25 cells were cultured in 1:1 mixture of Dulbecco’s modified Eagle’s medium and Ham’s F12 Medium (Sigma Aldrich, St. Louis, MO, USA) supplemented with 400 ng/ml hydrocortisone, 10% FBS, penicillin (100 U/mL), and streptomycin (100 μg/mL). A549 and AGS cells were maintained in F-12K Medium (Sigma Aldrich, St. Louis, MO, USA). LS-180 and FaDu cells were cultured in Eagle’s Minimum Essential Medium. HT-29 cells were maintained in McCoy’s 5 A Medium (Sigma Aldrich, St. Louis, MO, USA) supplemented with 10%FBS, penicillin (100 U/mL), and streptomycin (100 μg/mL). All the cells were maintained at 37 °C in a humidified atmosphere of 5% CO2.
(§3) The synthesised compounds were dissolved in DMSO in order to obtain stock solutions. At the day of the experiment, the suspension of cells (1 × 10^5 cells/mL) in the respective medium was applied to a 96-well plate at 100 μL per well. […] The control cells were cultured only with a medium containing 2% FBS. Cytotoxicity of DMSO was also checked at concentrations present in respective dilutions of stock solution. After 24 h (or 48 h) of incubation, 15 μL of MTT working solution (5 mg/mL in PBS) was added to each well. The plate was incubated for 3 h. Subsequently, 100 μL of 10% SDS solution was added to each well. Cells were incubated overnight at 37 °C to dissolve the precipitated formazan crystals. The concentration of the dissolved formazan was evaluated by measuring the absorbance at λ = 570 nm, using a microplate reader (Epoch, BioTek Instruments, Inc., Winooski, VT, USA). At least two independent experiments were performed in triplicates. The results of the MTT assay were expressed as mean ± SD. […] IC50 values of the investigated derivatives and standards were calculated using the IC50 calculator.[23]

[3] = system: A375 (melanoma cells); test: MTT assay; type: cell-based; conditions: Homo sapiens, read-out: IC50, cytotoxicity
Experimental: as §1, §2, §3

[4] = system: A549 (human lung carcinoma); test: MTT assay; type: cell-based; conditions: read-out: IC50, cytotoxicity
Experimental: as §1, §2, §3

[5] = system: FaDu (squamous cell carcinoma of the pharynx); test: MTT assay; type: cell-based; conditions: Homo sapiens, read-out: IC50, cytotoxicity
Experimental: as §1, §2, §3

[6] = system: HT-29 (colon cancer cell line); test: MTT assay; type: cell-based; conditions: Homo sapiens, HT-29, MTT, read-out: IC50, cytotoxicity
Experimental: as §1, §2, §3

[7] = system: MCF-7 (estrogen-dependent human breast cancer cells); test: MTT assay; type: cell-based; conditions: MCF7, MCF-7, MTT, read-out: IC50, cytotoxicity
Experimental: as §1, §2, §3

[8] = system: MDA-MB-231 (estrogen-independent human breast cancer cells); test: MTT assay; type: cell-based; conditions: MDA-MB-231, MTT, read-out: IC50, cytotoxicity
Experimental: as §1, §2, §3

[9] = system: SCC-25 (squamous cell carcinoma of the tongue); test: MTT assay; type: cell-based; conditions: Homo sapiens, SCC-25, MTT, read-out: IC50, cytotoxicity
Experimental: as §1, §2, §3

[10] = system: T98G (glioblastoma cells); test: MTT assay; type: cell-based; conditions: Homo sapiens, read-out: IC50, cytotoxicity
Experimental: as §1, §2, §3

[11] = target: T2, indoleamine-2,3-dioxygenase 1 (IDO 1) (Homo sapiens, UniProt P14902); test: Universal IDO1/IDO2/TDO Inhibitor Screening Assay Kit; type: biochemical; conditions: fixed dose of 50 µg/ml; read-out: IDO 1 inhibition (%) ± SD
T2 construct: purchased BPS Bioscience, Inc. (San Diego, CA, USA)
T2 sequence (P14902 whole entry): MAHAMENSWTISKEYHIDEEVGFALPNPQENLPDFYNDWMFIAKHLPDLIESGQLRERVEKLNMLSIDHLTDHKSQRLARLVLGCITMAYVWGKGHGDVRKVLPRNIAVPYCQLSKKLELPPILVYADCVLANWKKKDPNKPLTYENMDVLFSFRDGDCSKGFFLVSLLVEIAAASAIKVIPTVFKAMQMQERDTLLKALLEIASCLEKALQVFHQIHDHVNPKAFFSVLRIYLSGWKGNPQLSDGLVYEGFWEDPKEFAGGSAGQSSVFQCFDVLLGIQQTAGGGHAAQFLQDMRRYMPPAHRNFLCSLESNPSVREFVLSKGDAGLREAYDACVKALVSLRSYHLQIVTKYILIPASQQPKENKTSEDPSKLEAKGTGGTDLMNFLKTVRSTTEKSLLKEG

IC50 [1]	inhibition at 50 µg/mL [11]	Compound	IC50 at 24 h [2]	IC50 at 48 h [2]	IC50 ([3]; A-375, 24h)	IC50 ([3]; A-375, 48 h)	IC50 ([4]; 24h)	IC50 ([4]; 48h)	IC50 ([5]; 24h)	IC50 ([5]; 48 h)	IC50 ([6]; 24h)	IC50 ([6]; 48 h)	IC50 ([7]; 24h)	IC50 ([7]; 48h)	IC50 ([8]; 24h)	IC50 ([8]; 48h)	IC50 ([9]; 24h)	IC50 ([9]; 48 h)	IC50 ([10]; 24h)	IC50 ([10]; 48h)	also measured
43.1 ± 2.27 µM	41.4 ± 2.47%	O=C(Cc1cccc2ccccc12)NNC(=S)Nc1ccc(N=Nc2ccccc2)cc1 [Compound 2, 4-(4-Phenylazophenyl)-1-[(naphth-1-yl)acetyl]thiosemicarbazide]	15.6 µg/mL (≈ 35.5 µM)	10 µg/mL (≈ 22.8 µM)	8.96 µg/mL (≈ 20.4 µM)	2.47 µg/mL (≈ 5.62 µM)	5.84 µg/mL (≈ 13.3 µM)	5.78 µg/mL (≈ 13.1 µM)	2.75 µg/mL (≈ 6.26 µM)	2.54 µg/mL (≈ 5.78 µM)	8.96 µg/mL (≈ 20.4 µM)	5.33 µg/mL (≈ 12.1 µM)	9.18 µg/mL (≈ 20.9 µM)	8.85 µg/mL (≈ 20.1 µM)	7.64 µg/mL (≈ 17.4 µM)	7.07 µg/mL (≈ 16.1 µM)	4.73 µg/mL (≈ 10.8 µM)	3.12 µg/mL (≈ 7.1 µM)	5.53 µg/mL (≈ 12.6 µM)	4.85 µg/mL (≈ 11 µM)	melting point: 178 to 180 °C
76.8 ± 4.85 µM	21.4 ± 1.05%	O=C(NNC(=S)Nc1ccc(N=Nc2ccccc2)cc1)c1ccccc1[N+](=O)[O-] [Compound 3, 4-(4-Phenylazophenyl)-1-(2-nitrobenzoyl)thiosemicarbazide]	27.5 µg/mL (≈ 65.5 µM)	9.19 µg/mL (≈ 21.9 µM)	1.8 µg/mL (≈ 4.28 µM)	0.56 µg/mL (≈ 1.33 µM)	5.37 µg/mL (≈ 12.8 µM)	5.13 µg/mL (≈ 12.2 µM)	2.49 µg/mL (≈ 5.92 µM)	2.18 µg/mL (≈ 5.18 µM)	7.37 µg/mL (≈ 17.5 µM)	3.77 µg/mL (≈ 8.97 µM)	7.67 µg/mL (≈ 18.2 µM)	5.48 µg/mL (≈ 13 µM)	10.5 µg/mL (≈ 24.9 µM)	6.02 µg/mL (≈ 14.3 µM)	4.76 µg/mL (≈ 11.3 µM)	3.87 µg/mL (≈ 9.2 µM)	3.35 µg/mL (≈ 7.97 µM)	2.94 µg/mL (≈ 6.99 µM)	melting point: 168 to 170 °C
–	–	COc1cc([C@@H]2c3cc4c(cc3[C@@H](O[C@@H]3O[C@@H]5CO[C@@H](C)O[C@H]5[C@H](O)[C@H]3O)[C@H]3COC(=O)[C@H]23)OCO4)cc(OC)c1O [Etoposide, etoposide, reference compound]	37.9 µg/mL (≈ 64.3 µM)	29.1 µg/mL (≈ 49.5 µM)	10.2 µg/mL (≈ 17.3 µM)	6.48 µg/mL (≈ 11 µM)	> 100 µg/mL	15.6 µg/mL (≈ 26.5 µM)	12.5 µg/mL (≈ 21.3 µM)	10.7 µg/mL (≈ 18.2 µM)	94.5 µg/mL (≈ 161 µM)	11.3 µg/mL (≈ 19.2 µM)	> 100 µg/mL	6.15 µg/mL (≈ 10.4 µM)	> 100 µg/mL	40.3 µg/mL (≈ 68.5 µM)	59.1 µg/mL (≈ 100 µM)	23.7 µg/mL (≈ 40.3 µM)	> 100 µg/mL	17.1 µg/mL (≈ 29 µM)	–
71 ± 4.81 µM	91.4 ± 1.82%	CC(C)c1cccc(C(C)C)c1NC(=S)NNC(=O)Cc1cccc2ccccc12 [Compound 1, 4-(2,6-Diisopropylphenyl)-1-[(naphth-1-yl)acetyl]thiosemicarbazide]	17.6 µg/mL (≈ 41.9 µM)	9.61 µg/mL (≈ 22.9 µM)	4.57 µg/mL (≈ 10.9 µM)	1.82 µg/mL (≈ 4.34 µM)	3.87 µg/mL (≈ 9.22 µM)	2.27 µg/mL (≈ 5.41 µM)	7.26 µg/mL (≈ 17.3 µM)	2.01 µg/mL (≈ 4.79 µM)	8.96 µg/mL (≈ 21.4 µM)	5.33 µg/mL (≈ 12.7 µM)	9.82 µg/mL (≈ 23.4 µM)	8.45 µg/mL (≈ 20.1 µM)	9.21 µg/mL (≈ 21.9 µM)	8.04 µg/mL (≈ 19.2 µM)	7.06 µg/mL (≈ 16.8 µM)	5.22 µg/mL (≈ 12.4 µM)	6.98 µg/mL (≈ 16.6 µM)	2.27 µg/mL (≈ 5.41 µM)	melting point: 140 to 142 °C
